“And” between values parts separate entries of the source, which are not always exact repeats. Equal entries are not always repeated.
Assays:
Format in all cases: cell-based
[1] = system: HIV-1 in HLA DR− CD25− CD69− CD4+ T cells from HIV-1-infected cART-treated patients; experiment: HIV-1 recovery in resting memory (HLA DR− CD25− CD69−) CD4+ T cells from cART-treated patients; conditions: for concentration of viral RNA in culture supernatants: HLA DR− CD25− CD69− CD4+ T cells, six days after treatment
Method: Further to Table 3: Cultures of patient cells were mock-treated or treated with indicated compounds. Six days after treatment, the concentration of viral RNA in culture supernatants was determined (in copies/ml; l means below the threshold and ‘/’ indicates an untested condition). Total HIV-1 DNA is expressed as HIV-1 DNA copies/10^6 cells or as log HIV-1 DNA copies/10^6 cells.
FIG. 3. […] Cultures of resting memory CD4^+ T cells were mock-treated or treated as indicated. Six days after treatment, the concentration of viral RNA in culture supernatants was measured (in copies/ml). […] The reactivated patient cultures were classified in relevant categories where HIV-1 recovery after the combined treatment presented a higher viral production than after the individual treatment. […] The reactivated patient cultures were subdivided in two relevant categories: (b1) cultures in which HIV-1 recovery after the combined treatment was higher than after the individual treatments, (b2) and cultures in which a synergistic reactivation of viral RNA production was observed after the combined treatments.
(§1) Table 4. […] Cultures of resting memory CD4^+ T cells were mock-treated or treated with BIX-01294. Six days after treatment, the concentration of viral RNA in culture supernatants was determined in copies/ml (l indicates below the threshold).
as §1, with “FIG.” for “Table”, “BIX-01294 alone, with SAHA alone or with the combinationSAHA+BIX-01294.” for “BIX-01294.”, “(I” for “(l”
Cultures of 2.5×10^5 HLA DR^− CD 25 CD69^− CD4^+ T cells were mock-treated or treated with BIX-01294. Six days after treatment, the concentration of viral RNA in culture supernatants was determined (Table 4).

[2] = system: HIV-1 in HLA DR− CD4+ T cells from HIV-1-infected cART-treated patients; experiment: HIV-1 recovery in limiting-dilution cultures of HLA DR− CD4+ T cells from cART-treated patients; conditions: for concentration of viral RNA in culture supernatants: limiting dilution, one line per patient
Method: (§2) (a) Cultures of CD8^+-depleted PBMCs were mock-treated or treated with chaetocin (90 nmol/l). Six days after treatment, the concentration of viral RNA in culture supernatants was determined. Total HIV-1 DNA is expressed as HIV-1 DNA copies/10^6 cells or as log HIV-1 DNA copies/10^6 cells (‘/’ indicates not-tested condition). (b) Limiting-dilution cultures of HLA DR^− CD4^+ T cells were mock-treated or treated with chaetocin (45 or 90 nmol/l). The concentration of viral RNA in culture supernatants was determined. The last positive dilution culture indicates the presence of at least one cell carrying replication-competent and chaetocin-responsive virus.
(§3) Cultures comprising 6.10^6 CD8^+-depleted PBMCs were mock-treated or treated with chaetocin. Six days after treatment, the concentration of viral RNA in culture supernatants was determined by the Amplicor method (Roche Diagnostics). The results are depicted in Table 1 and 2A. The percentage of reactivation was calculated on all patients reactivated. Nine out of the eighteen tested PBMC cultures reactivated HIV-1 expression in response to chaetocin treatment, while none of them did when mock-treated. Subsequently, limiting-dilution cultures of HLA DR^− CD4^+ T cells were performed and these cultures were mock-treated or treated with chaetocin. The last positive dilution culture indicates the presence of at least one cell carrying replication-competent HIV-1 virus. The concentration of viral RNA in culture supernatants was determined by the Amplicor method (Roche Diagnostics). Values are expressed in HIV-1 RNA copies/ml.

[3] = system: HIV-1 in CD8+-depleted PBMCs from HIV-1-infected cART-treated patients; experiment: HIV-1 recovery in ex-vivo cultures of CD8+-depleted PBMCs from cART-treated patients; conditions: for concentration of viral RNA in culture supernatants: six days after treatment
Method: Table 1. […] Cultures of CD8^+-depleted PBMCs were mock-treated or treated with chaetocin (30, 60 or 90 nmol/l) or with the positive control. Six days after treatment, the concentration of viral RNA in culture supernatants was determined (in copies/ml; ‘l’ indicates below the threshold).
as §2, §3

[4] = one line per patient culture H19-H34 (Table 3), l = below the threshold

In the case of O=C(CCCCCCC(=O)Nc1ccccc1)NO [SAHA, suberoylanilide hydroxamic acid], the “concentration of viral RNA in culture supernatants” value (“concentration of viral RNA” for short) [1, 4] is reported as 624 copies/ml and 520 copies/ml and 252 copies/ml and 2248 copies/ml and 908 copies/ml and 952 copies/ml and 336 copies/ml and 540 copies/ml and 1480 copies/ml and 420 copies/ml and 416 copies/ml and 412 copies/ml.

With COc1cc2nc(N3CCCN(C)CC3)nc(NC3CCN(Cc4ccccc4)CC3)c2cc1OC [BIX-01294] the “% of reactivation” value ([1]; 10 patients (Table 4)) was 80%, the “concentration of viral RNA” value ([1]; one line per patient culture (Table 4), I = below the threshold) was 412 copies/ml and 1 780 copies/ml and 1 360 copies/ml and 665 copies/ml and 1624 copies/ml and 1385 copies/ml and 250 copies/ml and 4292 copies/ml and the “concentration of viral RNA” value [1, 4] was 665 copies/ml and 1624 copies/ml and 1385 copies/ml and 250 copies/ml and 4292 copies/ml and 412 copies/ml and 1780 copies/ml and 1360 copies/ml. For the same compound, the “reactivated HIV-1 expression, share of resting CD4+ T-cell cultures” value ([1]; cultures from HIV-1+ cART-treated patients (Table 4)) was 80% and the Reactivated patients ([1]; of 10 patients (Table 4)) was 8.

CC(=O)O[C@@]12C[C@@H](C)[C@@]3(O)[C@@H](C=C(CO)C[C@]4(O)C(=O)C(C)=C[C@@H]34)[C@@H]1C2(C)C [prostratin, 12-deoxyphorbol 13-acetate] was tested, and the “concentration of viral RNA” value [1, 4] was 612 copies/ml and 1380 copies/ml and 1064 copies/ml and 2508 copies/ml and 2540 copies/ml and 3532 copies/ml and 704 copies/ml and 420 copies/ml.

CN1C(=O)[C@@]23C[C@]4([C@]56C[C@@]78SS[C@@](CO)(C(=O)N7[C@H]5Nc5ccccc56)N(C)C8=O)c5ccccc5N[C@@H]4N2C(=O)[C@]1(CO)SS3 [chaetocin] was tested, and the “concentration of viral RNA” value [1, 4] was 832 copies/ml and 180 copies/ml and 2780 copies/ml and 1244 copies/ml and 1616 copies/ml and 2000 copies/ml and 680 copies/ml and 4944 copies/ml and 300 copies/ml and 328 copies/ml and 2456 copies/ml and 1000 copies/ml, the “concentration of viral RNA” value ([2]; chaetocin 45 nM, 1.5 × 10^6 cells) was 288 copies/ml and 831 copies/ml and the “concentration of viral RNA” value ([2]; chaetocin 45 nM, 5 × 10^5 cells) was 179 copies/ml and 245 copies/ml and 89 copies/ml and 97 copies/ml and 769 copies/ml. For the same compound, the “concentration of viral RNA” value ([2]; chaetocin 45 nM, 10^5 cells) was 83 copies/ml and 238 copies/ml, the “concentration of viral RNA” value ([2]; chaetocin 45 nM, 10^6 cells) was 284 copies/ml and 94 copies/ml and 292 copies/ml and 702 copies/ml and the “concentration of viral RNA” value ([2]; chaetocin 90 nM, 1.5 × 10^6 cells) was 377 copies/ml and 1050 copies/ml. For the same compound, the “concentration of viral RNA” value ([2]; chaetocin 90 nM, 5 × 10^4 cells) was 76 copies/ml, the “concentration of viral RNA” value ([2]; chaetocin 90 nM, 5 × 10^5 cells) was 147 copies/ml and 118 copies/ml and 68 copies/ml and 52 copies/ml and 1043 copies/ml and the “concentration of viral RNA” value ([2]; chaetocin 90 nM, 10^5 cells) was 51 copies/ml and 50 copies/ml and 47 copies/ml and 359 copies/ml. The “concentration of viral RNA” value ([2]; chaetocin 90 nM, 10^6 cells) was 178 copies/ml and 131 copies/ml and 791 copies/ml, the “HIV-1 recovery, share of resting CD4+ T-cell cultures” value ([2]; cultures from HIV-1+ cART-treated patients (Table 2b)) was 86% and the “% of reactivation” value ([3]; 18 patients H1-H18, chaetocin 90 nmol/l or positive control) was 50%. The “concentration of viral RNA” value ([3]; CD8+-depleted PBMCs, one line per patient culture H1-H18 (Table 3), l = below the threshold) was 1825 copies/ml and 354 copies/ml and 2057 copies/ml and 2371 copies/ml and 1566 copies/ml and 797 copies/ml and 477 copies/ml and 2388 copies/ml and 467 copies/ml, the Reactivated patients ([3]; chaetocin 30 nM, of 6 patients H1-H6) was 1 and the “concentration of viral RNA” value ([3]; chaetocin 30 nM, one line per patient culture, I = below the threshold) was 1139 copies/ml. For the same compound, the Reactivated patients ([3]; chaetocin 60 nM, of 6 patients H1-H6) was 3, the “concentration of viral RNA” value ([3]; chaetocin 60 nM, one line per patient culture, I = below the threshold) was 222 copies/ml and 452 copies/ml and 1924 copies/ml and the Reactivated patients ([3]; chaetocin 90 nM, of 6 patients H1-H6) was 4. The “concentration of viral RNA” value ([3]; chaetocin 90 nM, one line per patient culture, I = below the threshold) was 2371 copies/ml and 1825 copies/ml and 354 copies/ml and 2057 copies/ml, the “concentration of viral RNA” value ([3]; chaetocin 90 nmol/l, one line per patient culture H1-H18, I = below the threshold) was 2371 copies/ml and 1566 copies/ml and 797 copies/ml and 477 copies/ml and 2388 copies/ml and 467 copies/ml and 1825 copies/ml and 354 copies/ml and 2057 copies/ml and the “HIV-1 recovery, share of CD8+-depleted PBMCs cultures” value ([3]; cultures from HIV-1+ cART-treated patients (Table 2a)) was 50%. The Reactivated patients ([3]; of 18 patients H1-H18, chaetocin 90 nmol/l or positive control) was 9.

Reference: US9943536B2, “Reactivation of HIV-1 gene expression to treat persistent HIV infection” (UNIVERSITÉ LIBRE DE BRUXELLES, priority 2011, dated 2018)
